What follows are compounds tested against T1, GST-RIPK1 (recombinant GST-RIPK1 kinase domain (residues 1-327)) (Homo sapiens, UniProt Q13546) (assay: RIPK1-ADP-Glo enzymatic assay). Details: 25 nM GST-RIPK1, 300 μM ATP, 3 μM dephosphorylated-MBP; 30 minutes pre-incubation, 150 minutes reaction; ten-point titration.
T1 construct: recombinant GST-RIPK1 kinase domain (residues 1-327) enzyme; made in house; host or cells: baculovirus-transfected Sf21 insect cells
T1 sequence (Q13546 1-327): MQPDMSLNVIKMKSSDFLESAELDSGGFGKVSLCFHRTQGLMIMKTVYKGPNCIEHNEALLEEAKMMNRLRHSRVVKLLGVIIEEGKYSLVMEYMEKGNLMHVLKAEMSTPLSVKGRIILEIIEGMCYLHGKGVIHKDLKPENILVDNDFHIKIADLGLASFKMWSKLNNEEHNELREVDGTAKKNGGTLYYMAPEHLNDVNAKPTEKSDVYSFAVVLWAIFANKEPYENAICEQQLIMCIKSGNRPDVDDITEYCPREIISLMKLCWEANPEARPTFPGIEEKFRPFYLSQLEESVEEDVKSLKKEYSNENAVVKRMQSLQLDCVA
Type: biochemical
Protocol: The enzymatic activity of RIPK1 is measured using an assay derived from ADP-Glo kit (Promega™), which provides a luminescent-based ADP detection system. Specifically, the ADP generated by RIPK1 kinase is proportionally detected as luminescent signals in a homogenous fashion. In this context, the assessment of the inhibitory effect of small molecules (EC50) is measured by the effectiveness of the compounds to inhibit the ATP to ADP conversion by RIPK1. In this assay, the potency (EC50) of each compound was determined from a ten-point (1:3 serial dilution; top compound concentration of 100000 nM) titration curve using the following outlined procedure. To each well of a white ProxiPlus 384 well-plate, […] of compound (1% DMSO in final assay volume of 3 μL) was dispensed, followed by the addition of 2 μL of 1× assay buffer (25 mM Hepes 7.3, 20 mM MgCl2, 50 mM NaCl, 1 mM DTT, 0.005% Tween20, and 0.02% BSA) containing 37.5 nM of GST-RIPK1 (recombinant GST-RIPK1 kinase domain (residues 1-327) enzyme produced from baculovirus-transfected Sf21 cells: MW=62 kDa). Plates were placed in an ambient temperature humidified chamber for a 30 minutes pre-incubation with compound. Subsequently, each reaction was initiated by the addition of 1 μL 1×assay buffer containing 900 μM ATP and […]. The final reaction in each well of 3 μL consists of 25 nM of GST-RIPK1, 300 μM ATP, and 3 μM dephosphorylated-MBP. Kinase reactions were allowed to proceed for 150 minutes prior to adding ADP-Glo reagents per Promega's outlined kit protocol. Dose-response curves were generated by plotting percent effect (% product conversion; Y-axis) vs. Log10 compound concentrations (X-axis). EC50 values were calculated using a non-linear regression, four-parameters sigmoidal dose-response model.
Compound `COC(C)(C(=O)N1C[C@@H]2C[C@H]1c1cncc(C#N)c1O2)C1CC1` (mixture of isomers) [Compound 1-62, (2S,5S)-4-(2-(S and R)-cyclopropyl-2-methoxypropanoyl)-2,3,4,5-tetrahydro-2,5-methanopyrido[3,4-f][1,4]oxazepine-9-carbonitrile] has an IC50 of 444 nM. For `CC1(C(=O)N2C[C@@H]3C[C@H]2c2cncc(C#N)c2O3)CCCO1` (mixture of isomers) [Compound 1-64, (2S,5S)-4-(2-(S and R)-methyltetrahydrofuran-2-carbonyl)-2,3,4,5-tetrahydro-2,5-methanopyrido[3,4-f][1,4]oxazepine-9-carbonitrile], the IC50 was 729 nM. `CC1(C(=O)N2C[C@@H]3C[C@H]2c2cncc(C#N)c2O3)CCOC1` (mixture of isomers) [Compound 1-67, (2S,5S)-4-(3-(S and R)-methyltetrahydrofuran-3-carbonyl)-2,3,4,5-tetrahydro-2,5-methanopyrido[3,4-f][1,4]oxazepine-9-carbonitrile] gave an IC50 of 640 nM. `CCC(C)(OC)C(=O)N1C[C@@H]2C[C@H]1c1cncc(C#N)c1O2` (single isomer, unassigned) [Compound 1-16, (2S,5S)-4-[2(S or R)-methoxy-2-methylbutanoyl]-2,3,4,5-tetrahydro-2,5-methanopyrido[3,4-f][1,4]oxazepine-9-carbonitrile] gave an IC50 of 10 nM. `CCC(C)(OC)C(=O)N1C[C@@H]2C[C@H]1c1cncc(C#N)c1O2` (single isomer, unassigned) [Compound 1-17, (2S,5S)-4-[2(S or R)-methoxy-2-methylbutanoyl]-2,3,4,5-tetrahydro-2,5-methanopyrido[3,4-f][1,4]oxazepine-9-carbonitrile] showed an IC50 of 24 nM. For `CC1(C(=O)N2C[C@@H]3C[C@H]2c2cncc(C#N)c2O3)CC1(F)F` (single isomer, unassigned) [Compound 1-28, (2S,5S)-4-[(S or R)-2,2-difluoro-1-methylcyclopropane-1-carbonyl]-2,3,4,5-tetrahydro-2,5-methanopyrido[3,4-f][1,4]oxazepine-9-carbonitrile], the IC50 was 201 nM. Work on `CC1(C(=O)N2C[C@@H]3C[C@H]2c2cncc(C#N)c2O3)CC1(F)F` (single isomer, unassigned) [Compound 1-29, (2S,5S)-4-[(S or R)-2,2-difluoro-1-methylcyclopropane-1-carbonyl]-2,3,4,5-tetrahydro-2,5-methanopyrido[3,4-f][1,4]oxazepine-9-carbonitrile] yielded an IC50 of 376 nM. `N#Cc1cncc2c1O[C@H]1C[C@@H]2N(C(=O)C23CCCC2C3)C1` (single isomer, unassigned) [Compound 1-32, (2S,5S)-4-[(1R,5R or 1S,5S)-bicyclo[3.1.0]hexane-1-carbonyl]-2,3,4,5-tetrahydro-2,5-methanopyrido[3,4-f][1,4]oxazepine-9-carbonitrile] was tested, and the IC50 was 290 nM. `N#Cc1cncc2c1O[C@H]1C[C@@H]2N(C(=O)C23CCCC2C3)C1` (single isomer, unassigned) [Compound 1-33, (2S,5S)-4-[(1R,5R or 1S,5S)-bicyclo[3.1.0]hexane-1-carbonyl]-2,3,4,5-tetrahydro-2,5-methanopyrido[3,4-f][1,4]oxazepine-9-carbonitrile] was tested, and the IC50 was 94 nM. Compound `CC1(C(=O)N2C[C@@H]3C[C@H]2c2cncc(C#N)c2O3)Cc2cccc(Cl)c21` (single isomer, unassigned) [Compound 1-37, (2S,5S)-4-(5-chloro-7(R or S)-methylbicyclo[4.2.0]octa-1,3,5-triene-7-carbonyl)-2,3,4,5-tetrahydro-2,5-methanopyrido[3,4-f][1,4]oxazepine-9-carbonitrile] has an IC50 of 136 nM. `CC1(C(=O)N2C[C@@H]3C[C@H]2c2cncc(C#N)c2O3)CCCC1(F)F` (single isomer, unassigned) [Compound 1-38] gave an IC50 of 21 nM. `CC1(C(=O)N2C[C@@H]3C[C@H]2c2cncc(C#N)c2O3)CCCC1(F)F` (single isomer, unassigned) [Compound 1-39] showed an IC50 of 31 nM. For `CC1(C(=O)N2C[C@@H]3C[C@H]2c2cncc(C#N)c2O3)CCCC(F)(F)C1` (single isomer, unassigned) [Compound 1-40, (2S,5S)-4-[3,3-difluoro-1(R or S)-methylcyclohexane-1-carbonyl]-2,3,4,5-tetrahydro-2,5-methanopyrido[3,4-f][1,4]oxazepine-9-carbonitrile], the IC50 was 62 nM. `CC1(C(=O)N2C[C@@H]3C[C@H]2c2cncc(C#N)c2O3)CCCC(F)(F)C1` (single isomer, unassigned) [Compound 1-41, (2S,5S)-4-[3,3-difluoro-1-(R or S)-methylcyclohexane-1-carbonyl]-2,3,4,5-tetrahydro-2,5-methanopyrido[3,4-f][1,4]oxazepine-9-carbonitrile] showed an IC50 of 27 nM. `N#Cc1cncc2c1O[C@H]1C[C@@H]2N(C(=O)C23CCC(CC2(F)F)C3)C1` (single isomer, unassigned) [Compound 1-48, (2S,5S)-4-[(S or R)-2,2-difluorobicyclo[2.2.1]heptane-1-carbonyl]-2,3,4,5-tetrahydro-2,5-methanopyrido[3,4-f][1,4]oxazepine-9-carbonitrile] showed an IC50 of 5 nM. Compound `N#Cc1cncc2c1O[C@H]1C[C@@H]2N(C(=O)C23CCC(CC2(F)F)C3)C1` (single isomer, unassigned) [Compound 1-49, (2S,5S)-4-[(S or R)-2,2-difluorobicyclo[2.2.1]heptane-1-carbonyl]-2,3,4,5-tetrahydro-2,5-methanopyrido[3,4-f][1,4]oxazepine-9-carbonitrile] has an IC50 of 70 nM. For `N#Cc1cncc2c1O[C@H]1C[C@@H]2N(C(=O)C23CCC(C2)OC3)C1` (single isomer, unassigned) [Compound 1-50, (2S,5S)-4-[(S or R)-2-oxabicyclo[2.2.1]heptane-4-carbonyl]-2,3,4,5-tetrahydro-2,5-methanopyrido[3,4-f][1,4]oxazepine-9-carbonitrile], the IC50 was 300 nM. `N#Cc1cncc2c1O[C@H]1C[C@@H]2N(C(=O)C23CCC(C2)OC3)C1` (single isomer, unassigned) [Compound 1-51, (2S,5S)-4-[(S or R)-2-oxabicyclo[2.2.1]heptane-4-carbonyl]-2,3,4,5-tetrahydro-2,5-methanopyrido[3,4-f][1,4]oxazepine-9-carbonitrile] showed an IC50 of 367 nM. Compound `CCC(C)(C(=O)N1C[C@@H]2C[C@H]1c1cncc(C#N)c1O2)C(F)F` (single isomer, unassigned) [Compound 1-84, (2S,5S)-4-(2-(R or S)-(difluoromethyl)-2-methylbutanoyl)-2,3,4,5-tetrahydro-2,5-methanopyrido[3,4-f][1,4]oxazepine-9-carbonitrile] has an IC50 of 47 nM. For `CCC(C)(C(=O)N1C[C@@H]2C[C@H]1c1cncc(C#N)c1O2)C(F)F` (single isomer, unassigned) [Compound 1-85, (2S,5S)-4-(2-(R or S)-(difluoromethyl)-2-methylbutanoyl)-2,3,4,5-tetrahydro-2,5-methanopyrido[3,4-f][1,4]oxazepine-9-carbonitrile], the IC50 was 19 nM. Work on `N#Cc1cncc2c1O[C@H]1C[C@@H]2N(C(=O)C23CCCC2C3(F)F)C1` (single isomer, unassigned) [Compound 1-86, (2S,5S)-4-((1R,5S or 1S,5R)-6,6-difluorobicyclo[3.1.0]hexane-1-carbonyl)-2,3,4,5-tetrahydro-2,5-methanopyrido[3,4-f][1,4]oxazepine-9-carbonitrile] yielded an IC50 of 33 nM. `N#Cc1cncc2c1O[C@H]1C[C@@H]2N(C(=O)C23CCCC2C3(F)F)C1` (single isomer, unassigned) [Compound 1-87, (2S,5S)-4-((1R,5S or 1S,5R)-6,6-difluorobicyclo[3.1.0]hexane-1-carbonyl)-2,3,4,5-tetrahydro-2,5-methanopyrido[3,4-f][1,4]oxazepine-9-carbonitrile] showed an IC50 of 68 nM. For `CC(C(=O)N1C[C@@H]2C[C@H]1c1cncc(C#N)c1O2)(C(F)F)C1CC1` (single isomer, unassigned) [Compound 1-88, (2S,5S)-4-(2-(R or S)-cyclopropyl-3,3-difluoro-2-methylpropanoyl)-2,3,4,5-tetrahydro-2,5-methanopyrido[3,4-f][1,4]oxazepine-9-carbonitrile], the IC50 was 96 nM.

From US20240228506A1, “RIPK1 INHIBITORS AND METHODS OF USE” (Merck Sharp & Dohme LLC, priority 2021, published 2024)
